This note sets out measurements from PubChem BioAssay (NCI).

What all share (test): inhibition of tumour cell growth, NCI panel, 48 h
For assay [1], the system named is 786-0 renal.
The subject of assay [2] is LOX IMVI melanoma.
Assay [3] deals with HOP-92 NSCLC.
The subject of assay [4] is UACC-62 melanoma.
Assay [5] deals with HL-60(TB) leukemia.
Assay [6] concerns SK-MEL-2 melanoma.
In assay [7] the test system is HOP-62 NSCLC.
In assay [8] the test system is M14 melanoma.
Assay [9] has as its system T-47D breast.
Assay [10] relates to CAKI-1 renal.
The subject of assay [11] is PC-3 prostate.
Assay [12] has as its system NCI-H460 lung.
Assay [13] concerns RXF 393 renal.
In assay [14] the test system is ACHN renal.
The test system of assay [15] is UACC-257 melanoma.
Assay [16] concerns A498 renal.

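1) Cells in 96-well plates. 2) Compound, 48 h, 5 concentrations. 3) Linear interpolation between surrounding doses. 4) Unreached endpoint = highest concentration. The concentration for full growth arrest is given as TGI.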 A value given as a limit tells only on which side of the number the result lay.

For the compound `c1ccc(-n2nc3ccc4nonc4c3n2)cc1`, the TGI in [1], in assay [2], in assay [3], in assay [4], in [5] and in assay [6] was over 100 µM each time. For the same compound, the TGI in [7], in [8], in assay [9], in [10], in assay [11] and in assay [12] was over 100 µM each time. Moreover, the TGI in [13], in [14] and in assay [15] was over 100 µM throughout.

Turning to `C1=C(c2ccccc2)Nc2nnnn2C1c1ccccc1` (configuration not stated), the TGI was over 100 µM in assay [1]; 38.3 µM in assay [2]; over 100 µM in assay [4]; 64.4 µM in assay [5]; over 100 µM in assay [6]; over 100 µM in [7]. Also, the TGI was 79.8 µM in assay [8]; over 100 µM in [9]; over 100 µM in assay [10]; over 100 µM in [11]; over 100 µM in [12]; 51.1 µM in assay [13]. In addition, the results for the TGI in assay [14], in assay [15] and in assay [16] were 57.2 µM, over 100 µM and over 100 µM, respectively.

As to `CC(NC(=O)c1ccccc1)NC(=O)C(C)C(=O)Nc1ccccc1` (configuration not stated), the TGI in [1], in assay [3], in assay [4], in [5], in [6] and in assay [8] was over 100 µM throughout. The TGI in [9], in assay [10], in assay [11], in [12], in [13] and in [14] was over 100 µM throughout. In assay [15], this compound yielded a TGI of over 100 µM.

On to `CCc1n[nH]c(=O)n1/N=C/c1ccc(C)cc1`, for which the TGI in assay [1], in assay [2], in [3], in [4], in assay [5] and in assay [6] was over 100 µM throughout. In addition, the TGI in assay [7], in assay [9], in assay [10], in assay [12], in assay [13] and in [14] was over 100 µM throughout. For the same compound, the TGI in assay [15] and in [16] was over 100 µM throughout.

Turning to `N#Cc1c(N)[nH]c(=S)c(C#N)c1-c1ccccc1`, the TGI in assay [1], in assay [2], in assay [4], in assay [5], in assay [6] and in assay [7] was over 100 µM each time. The TGI in assay [9], in assay [10], in [11], in assay [12], in assay [13] and in assay [14] was over 100 µM in each case. Besides, the TGI in assay [15] and in [16] was over 100 µM each time.

For the compound `CC(=O)CSc1c(-c2ccccc2)c(=O)n(-c2ccccc2)c(=S)n1-c1ccccc1`, the TGI in assay [1], in assay [2], in assay [3], in assay [4], in assay [5] and in [6] was over 100 µM in each case. Moreover, the TGI in assay [7], in [8], in [9], in [10], in assay [11] and in [12] was over 100 µM in each case. The TGI in assay [14] and in assay [15] was over 100 µM each time.

`CNC(=O)N(CCC#N)CCCN(C(=O)NC)c1ccccc1`: the TGI in [1], in [2], in assay [3], in assay [4], in assay [5] and in [6] was over 100 µM throughout. The TGI in [7], in assay [8], in [9], in assay [10], in [11] and in assay [12] was over 100 µM each time. The TGI in assay [13], in assay [14] and in [15] was over 100 µM throughout.

Consider `O=c1oc2ccccc2c(O)c1/C=N/C(=S)NCCc1ccccc1`, for which the TGI in assay [1] is over 100 µM; in assay [2], over 100 µM; in assay [3], over 74.7 µM; in assay [4] it was 99.4 µM; in assay [5], 5.38 µM; in [6], over 85.1 µM. Also, the TGI is over 100 µM in [7]; over 100 µM in assay [8]; over 100 µM in assay [9]; over 100 µM in assay [10]; over 100 µM in assay [11]; over 70.3 µM in assay [12]. The TGI in [13] was over 100 µM; in assay [14], over 85.6 µM; in assay [15], over 100 µM.

Take `O=C(Nc1ccccc1)N(C1=NCC(CI)S1)c1ccc(F)cc1F` (configuration not stated): the TGI in assay [1] is over 100 µM; in assay [2], 35.2 µM; in [3], 51.1 µM; in assay [4], over 100 µM; in assay [5] it was 48 µM; in [6], over 100 µM. For the same compound, the TGI in [7] is over 100 µM; in assay [8], over 100 µM; in assay [9] it was over 100 µM; in assay [10], 66.9 µM; in assay [11], over 100 µM; in assay [13], over 100 µM. Further, the TGI in assay [14] is over 100 µM; in [15] it was 84 µM.

Take `CC1=C/C(=N\O)C(C(O)(C(F)(F)F)C(F)(F)F)C(C)(C)C1` (configuration not stated): the TGI in assay [1], in assay [2], in assay [3], in assay [4], in assay [7] and in assay [8] was over 10 µM in each case. In addition, the TGI in assay [9], in assay [10], in assay [11], in assay [12], in assay [14] and in assay [15] was over 10 µM each time. The compound also came in with a TGI in assay [16] of over 10 µM.
